How the values were obtained:
[1] = test system: gastric acid output; assay: Gastric antisecretory activity in the gastric fistula dog; type: in vivo, beagle dogs; details: for Percent Inhibition Acid Output: histamine infusion
Protocol: Thomas type [Thomas, J. E., Proc. Soc. Exp. Biol. Med., 46, 260 ([…])] stainless steel cannulae are inserted into the stomachs of beagle dogs (10-12 kg.) just orad to the pyloric gland area near the greater curvature to provide a chronic gastric fistula. Animals are allowed to recover for at least two months before any testing is done. Dogs are fasted overnight (~18 hours) with water ad lib prior to each experiment. The dogs are placed in a sling and an eight inch inside needle catheter (C. R. Baird, Inc.) with a two inch 17 gauge needle is inserted into a leg vein for purposes of drug administration. Gastric secretions are collected every 15 minutes by gravity drainage from the opened cannula. […] A modification of the procedure described by Grossman and Konturek, Gastroenterology, 66, 517 (1974) was followed. […] Each 15 minute sample of gastric juice is measured to the nearest 0.5 ml. and titratable acidity against 0.02 N NaOH (endpoint pH 7.0) is measured with an Autoburet and pH meter (radiometer). The percent inhibition of acid output is calculated as described in the pylorus ligated rat procedure.

[2] = test system: gastric acid output; assay: Gastric antisecretory activity in the two hour pylorus ligated (Shay) rat; type: in vivo, rat (male Long Evans); details: for Percent Inhibition Acid Output / ED50: 2 h; for ED50: two hour pylorus ligated rat; for Potency Ratio: relative to cimetidine = 1.00
From the text: The pyloric ligation procedure in the rat was designed by Shay et al., Gastroenterology, 5, 53 (1945) for the study of perforating gastric ulcers; however, as the method became known, it was also employed as a means of studying rat gastric secretion, Shay et al., Gastroenterology, 26, 906 (1954), Brodie, D. A., Am. J. Dig. Dis., 11, 231 (1966). A modification of this procedure is presently used to evaluate compounds for gastric antisecretory activity.
Male Long Evans rats, 280-300 gm., are used. The aimals are placed in individual cages and fasted for 24 hours with free access to water. Under ther anesthesia, the stomach is reached through a midline incision, and a cotton-thread ligature is placed around the pylorus. […] All compounds are solubilized with one equivalent of HCl and brought to the proper volume with water. The animals are returned to their cages from which the water bottles have been removed and two hours later are sacrificed with ether. The stomach is removed and the two hour gastric collection is drained into a graduated test tube for volume determination. Titratable acidity is measured by titrating a one ml. sample to pH 7.0 with 0.02 N NaOH, using an Autoburet and an electrometric pH meter (Radiometer). Titratable acid output is calculated in microequivalents by multiplying the volume in milliliters by the acid concentration in milliequivalents per liter. The percent inhibition of acid output is calculated as follows [formula]

[3] = molecular target: T1, histamine H2 -receptors (isolated guinea pig right atria) (Cavia porcellus, UniProt P47747); assay: Histamine H2-receptor antagonism, isolated guinea pig atria assay; type: cell-based, guinea pig (male Hartley strain); details: for Histamine ED50 With 95% Confidence Limits: histamine ED50 in presence of test compound 3 × 10^-5 M, 30 minute incubation; for Concentration-Response Curve Displacement Factor / Activity Ratio Relative to Cimetidine: test compound 3 × 10^-5 M; for Activity Ratio Relative to Cimetidine: cimetidine = 1.0
T1 construct: The spontaneously beating right atrium was dissected free from other tissues; from tissue; host or cells: isolated spontaneously beating right atrium of male Hartley guinea pigs
Protocol: Subsequent investigations by Hughes and Coret, Proc. Soc. […] Black et al., Agents and Actions, 3, 133 (1973) and Brimblecombe et al., Fed. […] The present comparative studies were carried out using a modification of the procedure reported by Reinhardt et al., Agents and Actions, 4, 217 (1974).
Male Hartley strain guinea pigs (350-450 gm.) were sacrificed by a blow on the head. The heart was excised and placed in a Petri dish of oxygenated (95% O2, 5% CO2) modified Krebs solution (g./liter: NaCl 6.6, KCl 0.35, MgSO4.7 H2 O 0.295, KH2 PO4 0.162, CaCl2 0.238, NaHCO3 2.1 and dextrose 2.09). The spontaneously beating right atrium was dissected free from other tissues and a silk thread (4-0) attached to each end. The atrium was suspended in a 20 ml. muscle chamber containing oxygenated modified Krebs solution maintained at 32° C. Atrial contractions were recorded isometrically by means of a Grass FT 0.03 force displacement transducer and recordings of contractile force and rate were made with a Beckman RP Dynograph.
A resting tension of 1 g. was applied to the atrium and it was allowed to equilibrate for 1 hour.
Concentration-response curve displacement factors were calculated as follows: [formula] […] [formula]

[4] = test system: peptic ulcer disease; details: clinical evaluation; cited from earlier work
[5] = test system: gastric secretion; details: cited from earlier work
[6] = test system: histamine H2 -receptors; details: isolated guinea pig right atria; cited from earlier work
[7] = test system: H2 receptors; details: cited from earlier work
[8] = clinical; cited from earlier work

T1 sequence (P47747 whole entry): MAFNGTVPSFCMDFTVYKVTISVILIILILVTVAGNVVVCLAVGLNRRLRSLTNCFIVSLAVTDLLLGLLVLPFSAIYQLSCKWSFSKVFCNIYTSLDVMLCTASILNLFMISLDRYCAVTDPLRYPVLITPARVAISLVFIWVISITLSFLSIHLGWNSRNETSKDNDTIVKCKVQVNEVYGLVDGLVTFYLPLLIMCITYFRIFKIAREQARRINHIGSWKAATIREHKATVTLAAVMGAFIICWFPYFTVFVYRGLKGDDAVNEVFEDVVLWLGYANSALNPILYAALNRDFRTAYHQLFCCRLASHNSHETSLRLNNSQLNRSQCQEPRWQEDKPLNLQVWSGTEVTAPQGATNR

SMILES: C#CCNC(=C[N+](=O)[O-])NCCSCc1ccc(CN(C)C)o1 [BL-5966, 1-Nitro-2-(2-propynylamino)-2-{2-[(5-dimethylaminomethyl-2-furyl)methylthio]ethylamino}ethylene]
- Percent Inhibition Acid Output ([1]; 0.0469 μ Mole/kg iv): 32%
- Percent Inhibition Acid Output ([1]; 0.0938 μ Mole/kg iv): 47%
- Percent Inhibition Acid Output ([1]; 0.1875 μ Mole/kg iv): 46%
- Percent Inhibition Acid Output ([1]; 0.375 μ Mole/kg iv): 90%
- ED50 ([1]; Canis lupus familiaris, iv, gastric fistula dog): 0.12 µmol/kg
- potency as inhibitor of gastric secretion (in words) ([1]; dogs): more potent than either cimetidine or Compound XVI
- Potency Ratio ([1]; iv, relative to cimetidine = 1.0): 11.5 times
- Percent Inhibition Acid Output ([2]; 0.625 μ Mole/kg ip): 27%
- Percent Inhibition Acid Output ([2]; 1.25 μ Mole/kg ip): 36%
- Percent Inhibition Acid Output ([2]; 2.5 μ Mole/kg ip): 59%
- Percent Inhibition Acid Output ([2]; 5 μ Mole/kg ip): 83%
- ED50 ([2]; ip): 1.8 µmol/kg
- Potency Ratio ([2]; ip): 5.81 times
- potency relative to Compound XVI ([2]; ip, vs Compound XVI): 2.52 times
- potency as inhibitor of gastric secretion (in words) ([2]; rats): more potent than either cimetidine or Compound XVI
- Histamine ED50 With 95% Confidence Limits [3]: 32.70 µg/mL
- potency as histamine H2 receptor antagonist (in words) ([3]; isolated guinea pig atria): more potent than either cimetidine or Compound XVI
- activity relative to Compound XVI ([3]; isolated guinea pig right atria, vs Compound XVI): about 4.80 times
- Concentration-Response Curve Displacement Factor [3]: 181.67

SMILES: C#CCNC(=NCCSCc1ccc(CN(C)C)o1)NC#N [BL-5993, N-Cyano-N'-(2-propyn-1-yl)-N"-{2-[(5-dimethylaminomethyl-2-furyl)methylthio]ethyl}guanidine]
- Percent Inhibition Acid Output ([2]; 10 μ Mole/kg ip): 34%
- Percent Inhibition Acid Output ([2]; 20 μ Mole/kg ip): 71%
- ED50 ([2]; ip): 12.5 µmol/kg
- Potency Ratio ([2]; ip): 0.83 times
- Histamine ED50 With 95% Confidence Limits [3]: 4.28 µg/mL
- Concentration-Response Curve Displacement Factor [3]: 23.78
- Activity Ratio Relative to Cimetidine [3]: 0.94 times
- Activity Ratio Relative to Cimetidine ([3]; listed as BL-5933): about 0.94 times

SMILES: CNC(=S)NCCCCc1cnc[nH]1 [Burimamide]
- clinical effectiveness [4]: first clinically effective H2 -receptor antagonist
- inhibition of gastric secretion ([5]; animals and man): inhibits gastric secretion in animals and man
- H2-receptor mediated effect in atria (in words) [6]: competitive antagonist of these receptors

SMILES: CN=C(NC#N)NCCSCc1nc[nH]c1C [Cimetidine]
- clinical effectiveness [4]: effective therapeutic agent in the treatment of peptic ulcer disease
- H2 antagonist potency/effectiveness (in words) [7]: as effective an H2 antagonist as metiamide
- Histamine ED50 With 95% Confidence Limits [3]: 4.80 µg/mL
- Concentration-Response Curve Displacement Factor [3]: 25.26
- toxicity (agranulocytosis) [8]: without producing agranulocytosis

SMILES: CNC(=C[N+](=O)[O-])NCCSCc1ccc(CN(C)C)o1 [Compound XVI, reference compound]
- Percent Inhibition Acid Output ([2]; 5 μ Mole/kg ip): 42%
- Percent Inhibition Acid Output ([2]; 10 μ Mole/kg ip): 77%
- Percent Inhibition Acid Output ([2]; 20 μ Mole/kg ip): 89%
- ED50 ([2]; ip): 4.52 µmol/kg
- Potency Ratio ([2]; ip): 2.31 times
- Histamine ED50 With 95% Confidence Limits [3]: 11.97 µg/mL
- Concentration-Response Curve Displacement Factor [3]: 38.61

SMILES: NCCc1c[nH]cn1 [Histamine]
- H2-receptor mediated effect in atria (in words) [6]: concentration-related increases in the contractile rate

SMILES: CNC(=S)NCCSCc1nc[nH]c1C [Metiamide]
- oral activity ([5]; man, oral): orally active in man
- H2 antagonist potency/effectiveness (in words) [7]: more potent than burimamide
- toxicity (agranulocytosis) [8]: toxicity (agranulocytosis)
